Experimental data as given in US9449726B2, “100Mo compounds as accelerator targets for production of 99mTc” (Washington University, priority 2013, dated 2016).
Entries after “also recorded” stand apart in the source; their conditions may differ.

Test system: normal CD1 mice
Test: SPECT/CT imaging of ^99mTc-MDP in small animals
Format: in vivo
Experimental: Preparation of ^99mTc-methylene diphosphonate (^99mTc-MDP) and Animal Imaging Studies. All animal studies were approved by the Animal Studies Committee at Washington University. ^99mTc-MDP was prepared using commercially available kits. 3.9 mg of a sterile lyophilized powder containing methylene diphosphonate as the main constituent, under the trade name MDP-BRACCO™ (Bracco Diagnostics Inc., Princeton, N.J.) was dissolved in 135 μL saline solution. From this solution 10 μL was pipetted and added to the 400 μL of 1.6×10^8Bq (4.3 mCi)^99mTcO4^− containing saline solution. Radio-ITLC was performed on this solution as described above. 100 μL of the prepared radiopharmaceutical with an activity of 2.0×10^7 Bq (0.55 mCi) was injected into one month old normal CD1 mice via tail vein followed by small animal SPECT/CT imaging (nanoSPECT, Bioscan, Washington D.C.). CT scans were performed using a tube voltage of 45 kV and a scan time of 1.5 seconds per projection while the animals were anesthetized by isofluorane. SPECT data were collected by monitoring in as helical scan at 45 projections and 60 seconds per projection using a 9-pinhole low energy collimator. SPECT images were collected for 45 minutes at 1.5, 3 and 4 hours post injection. The CT and SPECT images were reconstructed and colocalized using InVivoScope (inviCRO, LLC, Boston Mass.) and HiSPECT (Bioscan, Washington, D.C.).
In these experiments, activities of 2.0×10^7Bq of ^99mTc were injected into each mouse. Scan times of 45 minutes were employed in imaging while each mouse was anesthetized with isoflurane. FIG. 5 illustrates SPECT images of mice imaged at (a) 1.5 hours (b) 3 hours and (c) 4 hours post injection.

O.O.O=P([O-])([O-])CP(=O)([O-])[O-].[99Tc+4] [^99mTc-MDP, ^99mTc-methylene diphosphonate]
SPECT images: uniformity of uptake in the backbone (CD1 mice, tail vein): relatively uniform | SPECT images: activity at the earliest time point (CD1 mice, tail vein, 1.5 hours post injection (FIG. 5A)): activity in the kidneys and bladder as expected; also recorded: activity was seen in the excretory organs as shown in FIG. 5A, namely the kidneys and bladder | SPECT images: change of activity as time progressed (CD1 mice, tail vein, 3 hours and 4 hours post injection (FIGS. 5B and 5C)): clearance of radioactivity from these organs and increased accumulation in the bones and joints | SPECT images: regional uptake in the skeleton (CD1 mice, tail vein, backbone and joints): high activity uptake in the cervical, thoracic and lumbar regions of the backbone and major joints | SPECT images: tissue uptake of ^99mTc (one month old normal CD1 mice, tail vein injection, 2.0×10^7 Bq (0.55 mCi), imaged 1.5, 3 and 4 hours post injection): accumulation of ^99mTc in the bones and joints; also recorded: uptake of the ^99mTc in the bones as expected
